In patent US20090326008A1, “NF-kappa B Inhibitor” (priority 2006, published 2009):

How the values were obtained:
Assay type in all cases: cell-based, human
NF-κB = assay: NF-kappaB reporter assay (pNF-kappaB-SEAP) in IL-1β-stimulated MKN-45 cells; details: IL-1β 2 ng/mL for 6 hours, DMSO (0.05%) control = 1.00, triplicate
Experimental: pNF-kappaB-SEAP was obtained from Clonetech Laboratories Inc.
Cryopreserved MKN-45 cells (product of JCRB (Japanese Collection of Research Bioresources)) were thawed and cultured in a standard medium in an incubator (37° C., 5% CO2). Every three to five days, the cells were recovered by treatment with Trypsin-EDTA, then adequately diluted and subcultured. MKN-45 cells subcultured two or more times with a survival rate of 95% or more were used in each experiment.
The subcultured MKN-45 cells were harvested using Trypsin-EDTA solution, and the number of viable cells was counted. The cells were suspended in a standard medium to yield a 1.5×10^5 cells/mL suspension. A 24-well plate was seeded with 500 μL/well of the cell suspension, and the cells were cultured in an incubator (37° C., 5% CO2).
The day after seeding, transfection was performed according to the following protocol.
(4.1) Preparation of Plasmid Solution 4 μL of 0.1 μg/μL pNFkappaB-SEAP was placed into each well and diluted with 50 μL of OPTI-MEM I (product of Invitrogen Japan K.K.) by mixing by inversion.
1 μL of Lipofectamine 2000 reagent (product of Invitrogen) was placed into each well and diluted with 50 μL of OPTI-MEM I (product of Life Technologies Inc.) by mixing by inversion. The mixture was allowed to stand at room temperature for 5 to 10 minutes to prepare a Lipofectamine dilution.
The plasmid solution and the Lipofectamine dilution were mixed by inversion and allowed to stand at room temperature for 20 to 30 minutes to prepare a transfection mixture.
The culture medium was removed from the 24-well plate by suction. While care was taken not to dry the subcultured MKN-45 cells, the inner surface of the wells was washed with 1 mL/well of PBS. After the medium was replaced with 500 μL/well of OPTI-MEM I (product of Life Technologies Inc.), 100 μL/well of the transfection mixture was added, and the cells were cultured in a incubator (37° C., 5% CO2). After about 5 hours of incubation, the medium was replaced with a standard medium, and the cells were further cultured in a CO2 incubator (37° C., 5% CO2) until the following day.
On the following morning, the culture medium supernatant was removed by suction and replaced with 1 mL/well of the test compound solution or control solution diluted with a standard medium. The cells were cultured in a CO2 incubator (37° C., 5% CO2) for 1 hour. Each experiment was performed in triplicate.
200 ng/mL IL-1β was added in an amount of 10 μL/well (final concentration: 2 ng/mL), and the cells were cultured in a CO2 incubator (37° C., 5% CO2) for 6 hours.
A reporter assay was performed using Reporter Assay Kit-SEAP (product of Toyobo Co.) according to the manufacturer's protocol.
More specifically, 500 μL of the culture broth was transferred into a tube and centrifuged at 15,000 rpm for 5 minutes at 4° C. The supernatant was transferred into a 96-well white plate. The positive control included in the Reporter Assay Kit-SEAP, and a standard medium as a blank control were each added in an amount of 20 μL/well to the 96-well white plate. Further, an inhibitor for inhibiting the AP activity of the MKN-45 cells was added in an amount of 20 μL/well. After sealing the plate, the contents were mixed well. The plate was placed into a CO2 incubator (37° C., 5% CO2) and allowed to stand for 30 minutes. Subsequently, the plate was allowed to stand on ice for 1 minute, followed by addition of 160 μL/well of Lumi-Phos Plus (a chemiluminescent substrate, product of Lumigen Inc.). The plate was sealed again and placed in a light-shielded state into a CO2 incubator (37° C., 5% CO2). After the plate was allowed to stand for 15 to 30 minutes, luminescence was measured for about 5 to about 10 seconds using a luminometer.
The results of the reporter assay were expressed as Percent Control (or Inhibition), calculated according to the following formulae. The luminescence of each sample was calculated by subtracting the average of blank samples.

COX2 = assay: Relative COX2 mRNA expression in IL-1β-stimulated MKN-45 cells (real-time PCR); details: IL-1β-stimulated DMSO-treated cells = 100%, ACTB reference
Experimental: (§1) RNA was extracted from the cells used in Example 2 according to the manufacturer's protocol for ABI Prism 6100 Nucleic Acid PrepStation (a nucleic acid isolation system, product of Applied Biosystems). More specifically, after removal of the culture supernatant and washing with 1 mL of PBS, 250 μL of Nucleic Acid Purification Lysis Solution (Part No. 4305895, Applied Biosystems) was added, and then agitated using a shaker for 2 to 3 minutes. The Lysis Solution containing the cell lysate was collected, and the total amount was transferred to the wells of RNA Purification Tray (Part No. 4305673, Applied Biosystems), which had been pre-wet with 40 μL of Nucleic Acid Purification Wash Solution I (Part No. 4305891, Applied Biosystems) beforehand. Aspiration (20% pressure) was performed for 2 minutes to adsorb the sample onto the RNA Purification Tray, followed by sequentially adding and aspirating (20% pressure, 2 min.) 500 μL of Wash Solution I, Nucleic Acid Purification (Part No. 4305891, Applied Biosystems), 400 μL of Wash Solution II, Nucleic Acid Purification (Part No. 4305890, product of Applied Biosystems), 400 μL of the Wash Solution II, and 300 μL of the Wash Solution II in that order. Aspiration (90% pressure) was performed for 5 minutes to remove the water content from the RNA Purification Trays. After addition of 150 μL of Elution Solution, Nucleic Acid Purification (Part No. 4305893, product of Applied Biosystems), aspiration (20% pressure) was performed for 2 minutes, while collecting the outflow. This was used as collected RNA solution.
(§2) Absorbance of the collected RNA solution at 260 nm was measured using a microplate spectrophotometer (“SpectraMax Plus”, product of Molecular Devices) with an analysis software (“SOFTmaxPRO ver.3.1.2”, product of Molecular Devices), and the RNA concentration was determined from the absorbance. Likewise, absorbance at 280 nm was measured and the purity of the RNA was determined using the analysis software.
(§3) cDNA was synthesized according to the manufacturer's protocol for TaqMan® Reverse Transcription Reagents (Part No. N808-0234, product of Applied Biosystems). More specifically, about 0.5 μg of RNA, 2.5 μL of 10×RT buffer, 5.5 μL of MgCl2 solution, 5 μL of dNTP mixture, 1.25 μL of random hexamer (primers), 0.5 μL of RNase inhibitor, and 0.63 μL of MultiScribe Reverse Transcriptase (product of Applied Biosystems) were added to each collected RNA sample in a tube, and DEPC-treated water was added to make a total volume of 25 μL and stirred. A reaction consisting of 25° C. for 10 minutes, 48° C. for 30 minutes, and 95° C. for 5 minutes was performed using a PCR thermal cycler (“TaKaRa PCR Thermal Cycler Dice”, product of Takara Bio Inc.) to prepare a cDNA solution.
(§4) PCR was performed according to the manufacturer's protocol for TaqMan® Gene Expression Assays (product of Applied Biosystems). More specifically, 5 μL of TaqMan® Fast Universal PCR Master Mix (product of Applied Biosystems), 0.5 μL of TaqMan® Gene Expression Assays for the target gene (gene-specific probe and primer sets, product of Applied Biosystems), and 4.5 μL of the above-obtained cDNA solution were added to each sample and stirred. A PCR reaction consisting of heating at 95° C. for 20 seconds, followed by 40 cycles consisting of heating at 95° C. for 3 seconds and annealing and extension at 60° C. for 30 seconds was performed using a real-time PCR device (“Applied Biosystems 7500 Real-Time PCR System”) with SDS v1.4 Software (product of Applied Biosystems). Threshold cycle (Ct) values were calculated using the software.
(§5) The Assay IDs of the TaqMan® Gene Expression Assays for the target genes used are as follows:
(§6) The expression level of each gene was determined according to the following formula using the level of ACTB as a reference standard.
(§7) (Relative mRNA expression level)=2̂−{(Ct value of the target gene)−(Ct value of ACTB)} […]

TNFα = assay: Relative TNFα mRNA expression in IL-1β-stimulated MKN-45 cells (real-time PCR); details: IL-1β-stimulated DMSO-treated cells = 100%, ACTB reference
Experimental: as §1, §2, §3, §4, §5, §6, §7

IL-8 = assay: Relative IL-8 mRNA expression in IL-1β-stimulated MKN-45 cells (real-time PCR); details: IL-1β-stimulated DMSO-treated cells = 100%, ACTB reference
Experimental: as §1, §2, §3, §4, §5, §6, §7

COc1ccc(CC2SC(=S)NC2=O)c2c1N(Cc1ccc3ccccc3c1)C(=O)CC2 (centres unmarked) [Test Compound 971]
NF-kappaB reporter (SEAP luminescence) IL-1b(+) mean, relative to control (NF-κB): 0.56 | COX2 relative mRNA expression level, Mean (COX2): 30.8% | TNFa relative mRNA expression level, Mean (TNFα): 63.4% | IL-8 relative mRNA expression level, Mean (IL-8): 55.9%

COc1ccc(CC2SC(=S)NC2=O)c2c1N(Cc1ccc(C(C)(C)C)cc1)C(=O)CC2 (centres unmarked) [Test Compound 914]
NF-kappaB reporter (SEAP luminescence) IL-1b(+) mean, relative to control (NF-κB): 0.53 | COX2 relative mRNA expression level, Mean (COX2): 32.9% | TNFa relative mRNA expression level, Mean (TNFα): 66.7% | IL-8 relative mRNA expression level, Mean (IL-8): 61.9%

O=C1NC(=S)SC1Cc1ccc2c(c1)CCC(=O)N2Cc1ccc(-c2ccccc2)cc1 (centres unmarked) [Test Compound 995]
NF-kappaB reporter (SEAP luminescence) IL-1b(+) mean, relative to control (NF-κB): 0.66 | COX2 relative mRNA expression level, Mean (COX2): 28.1% | TNFa relative mRNA expression level, Mean (TNFα): 29.3% | IL-8 relative mRNA expression level, Mean (IL-8): 38.3%

O=C1NC(=O)C(Cc2cccc3c2CCC(=O)N3Cc2ccc(Br)cc2)S1 (centres unmarked) [Test Compound 134]
NF-kappaB reporter (SEAP luminescence) IL-1b(+) mean, relative to control (NF-κB): 0.46 | COX2 relative mRNA expression level, Mean (COX2): 33.1% | TNFa relative mRNA expression level, Mean (TNFα): 36.6% | IL-8 relative mRNA expression level, Mean (IL-8): 55.4%

O=C1NC(=O)C(Cc2ccc3c(c2)CCC(=O)N3Cc2ccc(-c3ccccc3)cc2)S1 (centres unmarked) [Test Compound 186]
NF-kappaB reporter (SEAP luminescence) IL-1b(+) mean, relative to control (NF-κB): 0.67 | COX2 relative mRNA expression level, Mean (COX2): 29.7% | TNFa relative mRNA expression level, Mean (TNFα): 70.8% | IL-8 relative mRNA expression level, Mean (IL-8): 67.7%

O=C1NC(=O)C(Cc2cccc3c2CCC(=O)N3c2ccccc2)S1 (centres unmarked) [Test Compound 150]
NF-kappaB reporter (SEAP luminescence) IL-1b(+) mean, relative to control (NF-κB): 0.71 | COX2 relative mRNA expression level, Mean (COX2): 53.7% | TNFa relative mRNA expression level, Mean (TNFα): 53.9% | IL-8 relative mRNA expression level, Mean (IL-8): 52.0%

COc1ccc(CC2SC(=O)NC2=O)c2c1N(Cc1ccc(C#N)cc1)C(=O)CC2 (centres unmarked) [Test Compound 125]
NF-kappaB reporter (SEAP luminescence) IL-1b(+) mean, relative to control (NF-κB): 0.55 | COX2 relative mRNA expression level, Mean (COX2): 29.2% | TNFa relative mRNA expression level, Mean (TNFα): 52.5% | IL-8 relative mRNA expression level, Mean (IL-8): 45.4%

Cc1ccc(CN2C(=O)CCc3c(CC4SC(=S)NC4=O)cccc32)cc1 (centres unmarked) [Test Compound 993]
NF-kappaB reporter (SEAP luminescence) IL-1b(+) mean, relative to control (NF-κB): 0.59 | COX2 relative mRNA expression level, Mean (COX2): 27.6% | TNFa relative mRNA expression level, Mean (TNFα): 46.8% | IL-8 relative mRNA expression level, Mean (IL-8): 45.6%

COc1ccc(CC2SC(=O)NC2=O)c2c1N(Cc1ccc(Br)cc1)C(=O)CC2 (centres unmarked) [Test Compound 123]
NF-kappaB reporter (SEAP luminescence) IL-1b(+) mean, relative to control (NF-κB): 0.46 | COX2 relative mRNA expression level, Mean (COX2): 28.6% | TNFa relative mRNA expression level, Mean (TNFα): 28.5% | IL-8 relative mRNA expression level, Mean (IL-8): 48.3%

CCCCCOC(=O)Nc1ccc(CN2C(=O)CCc3c(CC4SC(=O)NC4=O)ccc(OC)c32)cc1 (centres unmarked) [Test Compound 232]
NF-kappaB reporter (SEAP luminescence) IL-1b(+) mean, relative to control (NF-κB): 0.71 | COX2 relative mRNA expression level, Mean (COX2): 29.9% | TNFa relative mRNA expression level, Mean (TNFα): 28.9% | IL-8 relative mRNA expression level, Mean (IL-8): 33.8%

CCNC(=O)CCCN1C(=O)CCc2c(CC3SC(=O)NC3=O)ccc(OC)c21 (centres unmarked) [Test Compound 613]
NF-kappaB reporter (SEAP luminescence) IL-1b(+) mean, relative to control (NF-κB): 0.86 | COX2 relative mRNA expression level, Mean (COX2): 112.4% | TNFa relative mRNA expression level, Mean (TNFα): 94.0% | IL-8 relative mRNA expression level, Mean (IL-8): 91.5%
